SMILES strings stand for the structures.

The target of assay [1] is T1, Tyrosine-protein kinase JAK2 (Homo sapiens, UniProt O60674).
Assay [2] concerns the target T1, Tyrosine-protein kinase JAK2. Type of assay: cell-based, Blood, CD34+ cell.
Assay [3] deals with T2, Tyrosine-protein kinase JAK1 (Homo sapiens, UniProt P23458).
The target of assay [4] is T1, Tyrosine-protein kinase JAK2. The source holds these as a separate data set.
Assay [5] has as its target T3, Tyrosine-protein kinase JAK3 (Mus musculus, UniProt Q62137).
T3 sequence (Q62137 whole entry): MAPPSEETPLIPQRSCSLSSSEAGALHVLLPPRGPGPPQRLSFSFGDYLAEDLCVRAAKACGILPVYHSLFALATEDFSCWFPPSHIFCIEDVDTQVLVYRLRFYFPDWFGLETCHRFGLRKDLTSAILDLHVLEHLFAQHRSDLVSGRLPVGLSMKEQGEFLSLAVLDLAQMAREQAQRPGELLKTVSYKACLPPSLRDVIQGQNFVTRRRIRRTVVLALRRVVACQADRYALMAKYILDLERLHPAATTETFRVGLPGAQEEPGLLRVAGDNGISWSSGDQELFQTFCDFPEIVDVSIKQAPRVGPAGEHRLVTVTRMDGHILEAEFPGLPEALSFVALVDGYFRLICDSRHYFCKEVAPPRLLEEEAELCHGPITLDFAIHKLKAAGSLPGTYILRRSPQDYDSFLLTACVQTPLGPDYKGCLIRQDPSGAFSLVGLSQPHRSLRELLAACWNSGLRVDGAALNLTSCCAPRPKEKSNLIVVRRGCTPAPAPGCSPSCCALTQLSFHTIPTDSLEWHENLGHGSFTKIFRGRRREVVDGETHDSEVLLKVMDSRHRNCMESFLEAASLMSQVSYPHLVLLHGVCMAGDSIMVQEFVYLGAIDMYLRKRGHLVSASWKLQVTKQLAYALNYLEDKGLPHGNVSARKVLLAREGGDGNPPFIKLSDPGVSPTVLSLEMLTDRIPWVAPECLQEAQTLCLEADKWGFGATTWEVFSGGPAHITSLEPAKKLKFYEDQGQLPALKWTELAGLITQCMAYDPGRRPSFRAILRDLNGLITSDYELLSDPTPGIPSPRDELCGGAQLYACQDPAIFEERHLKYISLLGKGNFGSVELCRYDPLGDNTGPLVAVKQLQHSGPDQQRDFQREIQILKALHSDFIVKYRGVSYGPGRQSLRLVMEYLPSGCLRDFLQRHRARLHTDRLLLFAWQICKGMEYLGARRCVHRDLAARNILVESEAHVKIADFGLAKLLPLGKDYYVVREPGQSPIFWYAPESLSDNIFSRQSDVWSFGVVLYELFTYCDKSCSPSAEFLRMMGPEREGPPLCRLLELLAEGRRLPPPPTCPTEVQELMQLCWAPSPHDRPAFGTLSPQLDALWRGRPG
Type of assay: cell-based.

Assay [6] has as its target T2, Tyrosine-protein kinase JAK1. Type of assay: cell-based.

T1 sequence (O60674 whole entry): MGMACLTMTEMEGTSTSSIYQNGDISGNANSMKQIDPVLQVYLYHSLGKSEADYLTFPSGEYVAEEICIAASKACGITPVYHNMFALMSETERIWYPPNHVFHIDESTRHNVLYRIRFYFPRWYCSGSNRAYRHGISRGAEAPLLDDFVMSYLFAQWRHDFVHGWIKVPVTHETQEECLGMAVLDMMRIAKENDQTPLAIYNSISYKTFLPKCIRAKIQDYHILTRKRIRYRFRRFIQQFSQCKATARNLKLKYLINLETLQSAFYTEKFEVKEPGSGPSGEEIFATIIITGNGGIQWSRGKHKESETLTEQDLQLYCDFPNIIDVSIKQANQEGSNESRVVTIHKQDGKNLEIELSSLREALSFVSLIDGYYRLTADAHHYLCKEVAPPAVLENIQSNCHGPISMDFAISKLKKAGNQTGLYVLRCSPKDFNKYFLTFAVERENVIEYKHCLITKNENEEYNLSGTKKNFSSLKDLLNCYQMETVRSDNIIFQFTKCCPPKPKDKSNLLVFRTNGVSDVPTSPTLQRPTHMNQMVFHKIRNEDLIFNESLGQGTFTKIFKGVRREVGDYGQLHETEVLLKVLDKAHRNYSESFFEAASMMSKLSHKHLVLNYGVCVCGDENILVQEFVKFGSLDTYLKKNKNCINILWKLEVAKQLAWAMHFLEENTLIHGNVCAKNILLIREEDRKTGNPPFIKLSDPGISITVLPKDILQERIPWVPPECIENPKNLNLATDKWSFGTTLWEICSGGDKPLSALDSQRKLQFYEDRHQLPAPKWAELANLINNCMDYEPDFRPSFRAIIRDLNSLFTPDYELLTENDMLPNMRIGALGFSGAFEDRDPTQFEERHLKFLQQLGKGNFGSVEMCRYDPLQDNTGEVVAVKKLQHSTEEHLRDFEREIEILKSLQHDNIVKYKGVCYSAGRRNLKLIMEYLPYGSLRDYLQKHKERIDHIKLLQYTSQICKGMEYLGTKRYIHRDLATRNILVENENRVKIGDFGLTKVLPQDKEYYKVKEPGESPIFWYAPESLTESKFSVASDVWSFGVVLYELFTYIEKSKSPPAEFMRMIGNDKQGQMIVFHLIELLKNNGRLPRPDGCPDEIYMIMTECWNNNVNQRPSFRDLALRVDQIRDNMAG
T2 sequence (P23458 whole entry): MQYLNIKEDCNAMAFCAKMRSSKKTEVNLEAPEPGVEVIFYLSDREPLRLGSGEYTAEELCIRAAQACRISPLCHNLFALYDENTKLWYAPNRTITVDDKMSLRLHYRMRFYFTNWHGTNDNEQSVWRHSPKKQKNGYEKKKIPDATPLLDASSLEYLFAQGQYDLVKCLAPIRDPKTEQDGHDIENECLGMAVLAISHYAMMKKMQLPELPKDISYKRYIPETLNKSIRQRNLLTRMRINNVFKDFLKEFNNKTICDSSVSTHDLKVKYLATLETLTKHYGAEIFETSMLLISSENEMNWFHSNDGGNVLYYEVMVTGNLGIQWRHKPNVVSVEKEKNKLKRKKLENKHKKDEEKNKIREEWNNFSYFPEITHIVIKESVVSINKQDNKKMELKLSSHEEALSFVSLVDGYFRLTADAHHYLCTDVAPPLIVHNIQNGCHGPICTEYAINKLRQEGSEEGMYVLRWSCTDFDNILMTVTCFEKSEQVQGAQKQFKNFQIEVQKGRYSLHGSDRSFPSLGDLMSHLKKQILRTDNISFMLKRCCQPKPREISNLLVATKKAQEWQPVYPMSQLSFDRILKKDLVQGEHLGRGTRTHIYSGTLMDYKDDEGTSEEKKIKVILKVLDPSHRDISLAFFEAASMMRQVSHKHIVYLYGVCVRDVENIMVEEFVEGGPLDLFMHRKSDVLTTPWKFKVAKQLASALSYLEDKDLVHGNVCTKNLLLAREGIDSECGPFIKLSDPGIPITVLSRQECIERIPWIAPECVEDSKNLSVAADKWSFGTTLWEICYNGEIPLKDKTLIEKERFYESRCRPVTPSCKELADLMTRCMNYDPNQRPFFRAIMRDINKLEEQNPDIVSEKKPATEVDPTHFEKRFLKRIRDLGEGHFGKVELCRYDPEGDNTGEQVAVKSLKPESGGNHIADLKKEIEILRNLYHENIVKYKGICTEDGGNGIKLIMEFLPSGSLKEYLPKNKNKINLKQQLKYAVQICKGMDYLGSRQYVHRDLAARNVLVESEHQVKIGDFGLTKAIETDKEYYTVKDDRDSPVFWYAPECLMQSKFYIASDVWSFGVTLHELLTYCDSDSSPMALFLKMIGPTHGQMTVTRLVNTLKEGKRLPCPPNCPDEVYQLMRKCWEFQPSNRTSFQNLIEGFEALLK

In the case of `CC[C@@](C)(Nc1ccnc(-c2c[nH]c3ncccc23)n1)C(=O)NCC(F)(F)F` [DECERNOTINIB], the IC50 is 619 nM in assay [1]; greater than 10000 nM in assay [2]; 13.2 nM in assay [3]; 24 nM in assay [4]; 50 nM in assay [5]; 50 nM in assay [6]. This compound also came in with a Ki in assay [1] of 13 nM.

In general, IC50 refers to the concentration that inhibits the measured activity by half. Low readings indicate greater potency, high ones weaker potency. In general, Ki refers to the dissociation constant of the complex between target and ligand, obtained from inhibition or displacement.

The values above are taken from ChEMBL document CHEMBL3297690, “Discovery and development of Janus kinase (JAK) inhibitors for inflammatory diseases” (J Med Chem, 2014).
